Results: ChEMBL document CHEMBL5500372, “Novel natural osthole-inspired amphiphiles as membrane targeting antibacterials against methicillin-resistant Staphylococcus aureus (MRSA)” (Eur J Med Chem, 2024)
The source made the active and inactive calls. The rule behind the calls is not given here.

What was measured:
Cell membrane [1] = test: Induction of cytoplasmic membrane permeabilization in methicillin-resistant Staphylococcus aureus clinical isolate 16 assessed as increase in fluorescence intensity measured after 35 mins by SYTOX green dye based fluorescence analysis
Cell membrane [2] = test: Induction of cytoplasmic membrane depolarization in methicillin-resistant Staphylococcus aureus clinical isolate 16 assessed as increase in fluorescence intensity measured after 35 mins by DiSC3-5 dye based fluorescence method; type: cell membranes
Staphylococcus aureus [3] = test: Antibacterial activity against methicillin-resistant Staphylococcus aureus clinical isolate 13 measured after 18 hrs by CLSI based broth microdilution method; type: functional
Staphylococcus aureus [4] = test: Antibacterial activity against Staphylococcus aureus ATCC 29213 measured after 18 hrs by CLSI based broth microdilution method; type: functional
Staphylococcus aureus [5] = test: Antibacterial activity against methicillin-resistant Staphylococcus aureus clinical isolate 14 measured after 18 hrs by CLSI based broth microdilution method; type: functional
[6] = Selectivity index, ratio of HC50 for hemolytic activity in sheep erythrocyte assessed as hemolysis to MIC for antibacterial activity against Staphylococcus aureus ATCC 29213; type: toxicity; details: sheep erythrocytes, read-out: Selectivity Index
Staphylococcus aureus [7] = test: Antibacterial activity against methicillin-resistant Staphylococcus aureus clinical isolate 22 measured after 18 hrs by CLSI based broth microdilution method; type: functional
[8] = Hemolytic activity in sheep erythrocyte assessed as hemolysis incubated for 1 hr by absorbance based analysis; type: toxicity, cell-based, Ovis aries; details: sheep erythrocytes
Staphylococcus aureus [9] = test: Antibacterial activity against methicillin-resistant Staphylococcus aureus clinical isolate 12 measured after 18 hrs by CLSI based broth microdilution method; type: functional
Escherichia coli = test: Antibacterial activity against Escherichia coli ATCC 25922 measured after 18 hrs by CLSI based broth microdilution method; type: functional
Staphylococcus aureus [10] = test: Antibacterial activity against methicillin-resistant Staphylococcus aureus clinical isolate 16 measured after 18 hrs by CLSI based broth microdilution method; type: functional
Staphylococcus aureus [11] = test: Antibacterial activity against methicillin-resistant Staphylococcus aureus clinical isolate 20 measured after 18 hrs by CLSI based broth microdilution method; type: functional
Staphylococcus aureus [12] = test: Antibacterial activity against methicillin-resistant Staphylococcus aureus clinical isolate 11 measured after 18 hrs by CLSI based broth microdilution method; type: functional
Staphylococcus aureus [13] = test: Antibacterial activity against methicillin-resistant Staphylococcus aureus clinical isolate 21 measured after 18 hrs by CLSI based broth microdilution method; type: functional
Staphylococcus aureus [14] = test: Antibacterial activity against methicillin-resistant Staphylococcus aureus clinical isolate 23 measured after 18 hrs by CLSI based broth microdilution method; type: functional
Staphylococcus aureus [15] = test: Antibacterial activity against methicillin-resistant Staphylococcus aureus clinical isolate 17 measured after 18 hrs by CLSI based broth microdilution method; type: functional
Staphylococcus aureus [16] = test: Antibacterial activity against Staphylococcus aureus ATCC 29213 at 128 ug/ml measured after 20 passages by CLSI micro broth dilution method; type: functional, organism-based; details: dose 128.0 µg/ml

| Structure (SMILES) | Activity (Cell membrane [1]) | Activity (Cell membrane [2]) | MIC (Staphylococcus aureus [3]) [µg/mL] | MIC (Staphylococcus aureus [4]) [µg/mL] | MIC (Staphylococcus aureus [5]) [µg/mL] | selectivity ratio [6] | MIC (Staphylococcus aureus [7]) [µg/mL] | HC50 at 1 h [8] [µg/mL] | MIC (Staphylococcus aureus [9]) [µg/mL] | MIC (Escherichia coli) [µg/mL] | MIC (Staphylococcus aureus [10]) [µg/mL] | MIC (Staphylococcus aureus [11]) [µg/mL] | MIC (Staphylococcus aureus [12]) [µg/mL] | MIC (Staphylococcus aureus [13]) [µg/mL] | MIC (Staphylococcus aureus [14]) [µg/mL] | MIC (Staphylococcus aureus [15]) [µg/mL] | Activity (Staphylococcus aureus [16]) |
| --- | --- | --- | --- | --- | --- | --- | --- | --- | --- | --- | --- | --- | --- | --- | --- | --- | --- |
| CC[C@H](C)[C@H](NC(=O)CN)C(=O)NCC(=O)N[C@@H](C)C(=O)N[C@H](C(=O)N[C@@H](CC(C)C)C(=O)N[C@@H](CCCCN)C(=O)N[C@H](C(=O)N[C@@H](CC(C)C)C(=O)N[C@H](C(=O)N[C@H](C(=O)NCC(=O)N[C@@H](CC(C)C)C(=O)N1CCC[C@H]1C(=O)N[C@@H](C)C(=O)N[C@@H](CC(C)C)C(=O)N[C@H](C(=O)N[C@@H](CO)C(=O)N[C@@H](Cc1c[nH]c2ccccc12)C(=O)N[C@H](C(=O)N[C@@H](CCCCN)C(=O)N[C@@H](CCCNC(=N)N)C(=O)N[C@@H](CCCCN)C(=O)N[C@@H](CCCNC(=N)N)C(=O)N[C@@H](CCC(N)=O)C(=O)N[C@@H](CCC(N)=O)C(N)=O)[C@@H](C)CC)[C@@H](C)CC)[C@@H](C)O)[C@@H](C)O)C(C)C)C(C)C | Active | Active | – | – | – | – | – | – | – | – | – | – | – | – | – | – | – |
| CCNC(=O)C[N+](C)(C)CCCCCOc1ccc2ccc(=O)oc2c1CC=C(C)C.[Br-] | – | – | 64 | 64 | 32 | > 20 | 32 | > 1280 | 64 | > 128 | 32 | 64 | 64 | 64 | 32 | 64 | – |
| CC(C)=CCc1c(OCCCCC[N+](C)(C)CC(=O)N(C(C)C)C(C)C)ccc2ccc(=O)oc12.[Br-] | – | – | 8 | 4 | 4 | 184 | 4 | 736 | 8 | > 128 | 4 | 4 | 8 | 4 | 4 | 4 | – |
| CCN(CC)C(=O)C[N+](C)(C)CCCCOc1ccc2ccc(=O)oc2c1CC=C(C)C.[Br-] | – | – | 128 | 64 | 64 | 19 | 64 | 1220 | 128 | > 128 | 64 | 64 | 128 | 64 | 64 | 64 | – |
| CCN(CC)C(=O)C[N+](C)(C)CCCOc1ccc2ccc(=O)oc2c1CC=C(C)C.[Br-] | – | – | 128 | 128 | 128 | > 10 | 128 | > 1280 | 128 | 128 | 128 | 128 | 128 | 128 | 128 | 128 | – |
| CCn1cc(C(=O)O)c(=O)c2cc(F)c(N3CCNCC3)cc21 | – | – | – | – | – | – | – | – | – | – | – | – | – | – | – | – | Active |
| CC(C)=CCc1c(OCCCC[N+](C)(C)CC(=O)N(C(C)C)C(C)C)ccc2ccc(=O)oc12.[Br-] | – | – | 32 | 16 | 16 | 79.2 | 16 | 1270 | 32 | 128 | 16 | 16 | 16 | 16 | 16 | 16 | – |
| CCCN(CCC)C(=O)C[N+](C)(C)CCCCCOc1ccc2ccc(=O)oc2c1CC=C(C)C.[Br-] | – | – | 8 | 8 | 8 | 97.4 | 4 | 779 | 16 | 128 | 8 | 8 | 8 | 8 | 8 | 8 | – |
| CCCCCCNC(=O)C[N+](C)(C)CCCCOc1ccc2ccc(=O)oc2c1CC=C(C)C.[Br-] | – | – | 4 | 4 | 4 | > 320 | 4 | > 1280 | 8 | 64 | 2 | 4 | 4 | 4 | 2 | 4 | – |
| CCCCN(CCCC)C(=O)C[N+](C)(C)CCCCCOc1ccc2ccc(=O)oc2c1CC=C(C)C.[Br-] | – | – | 2 | 1 | 1 | 989 | 1 | 989 | 2 | 128 | 1 | 1 | 1 | 1 | 1 | 1 | – |
| CC(C)=CCc1c(OCCCCC[N+](C)(C)CC(=O)N(CC(C)C)CC(C)C)ccc2ccc(=O)oc12.[Br-] | – | – | 2 | 2 | 1 | 480 | 1 | 960 | 2 | 128 | 1 | 1 | 1 | 1 | 1 | 1 | – |
| CCCCCNC(=O)C[N+](C)(C)CCCCOc1ccc2ccc(=O)oc2c1CC=C(C)C.[Br-] | – | – | 16 | 8 | 8 | > 160 | 8 | > 1280 | 16 | 64 | 8 | 8 | 8 | 8 | 8 | 8 | – |
